What all share (assay type): cell-based, mouse
Test [1] relates to α7 integrin (LacZ reporter in α7βgal+/− myoblasts). Description: Myoblast α7+/LacZ integrin FDG assay (Burkin assay in myoblasts, 96-well). The following applies: for Burkin Assay in Myoblasts, signal relative to DMSO: α7+/LacZ myoblasts; for Burkin Assay in Myoblasts, signal relative to DMSO / Burkin Assay in Myoblasts, value relative to DMSO: 96-well; for Burkin Assay in Myoblasts, value relative to DMSO: SU9516 analogs, N=3-6.

For test [2], the system named is β-galactosidase in CMV-LacZ C2C12 myotubes. The test is described as follows: CMV-LacZ secondary screen in C2C12 myotubes (β-Gal stabilizing assay). The following applies: for CMV-LACZ in Myotubes, signal relative to DMSO: C2C12 CMV-LacZ myotubes, fold relative to DMSO; for CMV-LACZ in Myotubes, value relative to DMSO: SU9516 analogs, C2C12 CMV-LacZ, N=2. The method in brief: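 Dose-response runs at 0.5–40 μM (0.5, 1, 5, 10, 20, 40 μM; N=2 per point) used a clonal C2C12 line carrying CMV-LacZ. Cells were assayed as myoblasts or as differentiated myotubes, and β-galactosidase levels were read with the FDG fluorogenic substrate.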

The test system of test [3] is α7 integrin (LacZ reporter in α7+/LacZ myotubes). Description: Myotube α7 integrin FDG assay (Burkin assay in myotubes, 96-well). The following applies: for Burkin Assay in Myotubes, value relative to DMSO: SU9516 analogs, 96-well, N=3-6.
Test [4] relates to β-galactosidase in CMV-LacZ C2C12 myoblasts. The test is described as follows: CMV-LacZ secondary screen in C2C12 myoblasts (β-Gal stabilizing assay). The following applies: for CMV-LACZ in Myoblasts (β-galactosidase activity relative to DMSO): CMV-LacZ C2C12 myoblasts; for CMV-LACZ in Myoblasts, value relative to DMSO: SU9516 analogs, C2C12 CMV-LacZ, N=2. The method in brief: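 First, C2C12 myoblasts were transfected with a linearized CMV-LACZ vector and clonal lines selected by FDG β-gal assay. Then cells were exposed to compounds at 0.5, 1, 5, 10, 20 and 40 μM in 96-well format, two replicates each, and β-gal measured.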

Where [5] appears, read: Mus musculus, Myoblast, 48 h, read-out: Burkin Assay in Myoblasts, value relative to DMSO.

As to `Cc1[nH]c(=O)[nH]c(=O)c1S(=O)(=O)Nc1ccc(F)cc1Cl` [MLS001200149-01], the “Burkin Assay in Myoblasts, signal relative to DMSO” value in test [1] (0.5 uM) was 1.039; in test [1] (1 uM), 1.156; in test [1] (5 uM), 1.0782; in test [1] (10 uM) it was 0.998; in test [1] (20 uM), 1.021; in test [1] (40 uM), 0.9876. For the same compound, the “CMV-LACZ in Myotubes, signal relative to DMSO” value in test [2] (0.5 uM) was 0.8378; in test [2] (1 uM) it was 0.9933; in test [2] (5 uM), 0.9974; in test [2] (10 uM), 0.8176; in test [2] (20 uM), 0.8318; in test [2] (40 uM), 0.9424. Also, the “Burkin Assay in Myotubes, α7 integrin LacZ reporter signal relative to DMSO” value came to 1.26 in test [3] (0.5 uM); 1.072 in test [3] (1 uM); 1.069 in test [3] (5 uM); 1.094 in test [3] (10 uM); 0.9286 in test [3] (20 uM); 0.8363 in test [3] (40 uM). The “CMV-LACZ in Myoblasts (β-galactosidase activity relative to DMSO)” value in test [4] (0.5 uM) is on record as 1.1234; in test [4] (1 uM), 0.9203; in test [4] (5 uM), 0.9489; in test [4] (10 uM) it was 1.0523; in test [4] (20 uM) it was 0.9363; in test [4] (40 uM), 1.1552.
Take `COc1ccc(CCNC(=O)Cn2nnc(C(=O)Nc3ccc(Br)cc3)c2N)cc1OC` [MLS000912699-01]: the “Burkin Assay in Myoblasts, signal relative to DMSO” value in test [1] (0.5 uM) turned out to be 1.115; in test [1] (1 uM) it was 1.038; in test [1] (5 uM), 0.9322; in test [1] (10 uM) it was 0.9298; in test [1] (20 uM) it was 0.6724; in test [1] (40 uM), 0.4392. Also, the “CMV-LACZ in Myotubes, signal relative to DMSO” value is listed as 0.8089 in test [2] (0.5 uM); 0.9859 in test [2] (1 uM); 0.9419 in test [2] (5 uM); 1.1310 in test [2] (10 uM); 0.9235 in test [2] (20 uM); 0.5365 in test [2] (40 uM). Also, the “Burkin Assay in Myotubes, α7 integrin LacZ reporter signal relative to DMSO” value in test [3] (0.5 uM) is recorded as 1.175; in test [3] (1 uM), 0.9376; in test [3] (5 uM), 0.9252; in test [3] (10 uM) it was 0.939; in test [3] (20 uM) it was 0.5217; in test [3] (40 uM), 0.6518. Also, the “CMV-LACZ in Myoblasts (β-galactosidase activity relative to DMSO)” value in test [4] (0.5 uM) is 0.7147; in test [4] (1 uM) it was 0.8744; in test [4] (5 uM), 0.9111; in test [4] (10 uM), 1.0462; in test [4] (20 uM), 0.8826; in test [4] (40 uM) it was 0.5204.
Regarding `Cc1cccc2c(N=Nc3ccc(S(=O)(=O)Nc4ccc(Cl)cc4)cc3[N+](=O)[O-])c(O)[nH]c12` [MLS000393762-01], the “Burkin Assay in Myoblasts, signal relative to DMSO” value in test [1] (0.5 uM) is 0.9738; in test [1] (1 uM), 0.9428; in test [1] (5 uM) it was 0.7799; in test [1] (10 uM) it was 0.6957; in test [1] (20 uM) it was 0.5961; in test [1] (40 uM), 0.4696. Further, the “CMV-LACZ in Myotubes, signal relative to DMSO” value worked out at 0.8653 in test [2] (0.5 uM); 0.9326 in test [2] (1 uM); 1.0005 in test [2] (5 uM); 1.0049 in test [2] (10 uM); 1.0800 in test [2] (20 uM); 1.0578 in test [2] (40 uM). Moreover, the “Burkin Assay in Myotubes, α7 integrin LacZ reporter signal relative to DMSO” value in test [3] (0.5 uM) worked out at 0.9402; in test [3] (1 uM) it was 0.925; in test [3] (5 uM), 0.9795; in test [3] (10 uM), 1.007; in test [3] (20 uM), 0.7705; in test [3] (40 uM) it was 0.7046. Further, the “CMV-LACZ in Myoblasts (β-galactosidase activity relative to DMSO)” value in test [4] (0.5 uM) is on record as 0.9560; in test [4] (1 uM) it was 0.9351; in test [4] (5 uM) it was 1.0114; in test [4] (10 uM) it was 1.0198; in test [4] (20 uM) it was 0.3793; in test [4] (40 uM), 0.4467.
`COc1ccc2c(c1)/C(=C\c1cccc(/C=C3/C(=O)Nc4ccc(OC)cc43)n1)C(=O)N2` [MLS002702497-01]: the “Burkin Assay in Myoblasts, value relative to DMSO” value in test [1] (0.5 uM) is 0.7804; in test [1] (1 uM) it was 0.5545; in test [1] (5 uM) it was 0.175; in test [1] (10 uM), 0.1888; in test [1] (20 uM), 0.05588; in test [1] (40 uM), 0.04886. The “CMV-LACZ in Myotubes, value relative to DMSO” value in test [2] (0.5 uM) is given as 1.1181; in test [2] (1 uM), 2.2829; in test [2] (5 uM) it was 7.0726; in test [2] (10 uM) it was 6.3598; in test [2] (20 uM) it was 0.6520; in test [2] (40 uM), 0.6550. Also, the “Burkin Assay in Myotubes, value relative to DMSO” value was 0.8414 in test [3] (0.5 uM); 0.749 in test [3] (1 uM); 0.7692 in test [3] (5 uM); 0.7814 in test [3] (10 uM); 0.4567 in test [3] (20 uM); 0.3839 in test [3] (40 uM). For the same compound, the “CMV-LACZ in Myoblasts, value relative to DMSO” value in test [4] (0.5 uM) stood at 0.8643; in test [4] (1 uM), 1.0213; in test [4] (5 uM), 2.6344; in test [4] (10 uM) it was 3.6076; in test [4] (20 uM), 0.2593; in test [4] (40 uM), 0.2779.
On to `O=C1Nc2ccccc2/C1=C/c1ccnc2ccccc12` [MLS001182278-01], for which the fold induction at 0.5 µM in test [1] (setting [5]) turned out to be 1.21. Moreover, in test [1] (setting [5]), the fold induction at 1 µM was 1.07. The fold induction at 5 µM in test [1] (setting [5]) worked out at 1.06. Moreover, in test [1] (setting [5]), the fold induction at 10 µM worked out at 1.17. For the same compound, the fold induction at 20 µM in test [1] (setting [5]) was 0.766. For the same compound, the fold induction at 40 µM in test [1] (setting [5]) is 0.842. The “CMV-LACZ in Myotubes, value relative to DMSO” value came out at 0.9674 in test [2] (0.5 uM); 1.0126 in test [2] (1 uM); 1.0327 in test [2] (5 uM); 1.0297 in test [2] (10 uM); 1.0224 in test [2] (20 uM); 1.1212 in test [2] (40 uM). Further, the “Burkin Assay in Myotubes, value relative to DMSO” value was determined as 1.1969 in test [3] (0.5 uM); 1.118 in test [3] (1 uM); 1.402 in test [3] (5 uM); 1.412 in test [3] (10 uM); 0.5653 in test [3] (20 uM); 0.6488 in test [3] (40 uM). The “CMV-LACZ in Myoblasts, value relative to DMSO” value in test [4] (0.5 uM) is 0.7466; in test [4] (1 uM), 0.9491; in test [4] (5 uM), 0.9823; in test [4] (10 uM), 0.9778; in test [4] (20 uM), 1.0519; in test [4] (40 uM) it was 0.5959.

The record behind these values is US9980943B2, “Methods of treating muscular dystrophy” (BOARD OF REGENTS OF THE NEVADA SYSTEM OF HIGHER EDUCATION, …, priority 2013, dated 2018).
